The results in this text go back to article PMC3479967 (Evidence-based Complementary and Alternative Medicine : eCAM, 2012).

One experiment deals with T1, UGT1A9 (Homo sapiens, UniProt O60656).
T1 sequence (O60656 26-530): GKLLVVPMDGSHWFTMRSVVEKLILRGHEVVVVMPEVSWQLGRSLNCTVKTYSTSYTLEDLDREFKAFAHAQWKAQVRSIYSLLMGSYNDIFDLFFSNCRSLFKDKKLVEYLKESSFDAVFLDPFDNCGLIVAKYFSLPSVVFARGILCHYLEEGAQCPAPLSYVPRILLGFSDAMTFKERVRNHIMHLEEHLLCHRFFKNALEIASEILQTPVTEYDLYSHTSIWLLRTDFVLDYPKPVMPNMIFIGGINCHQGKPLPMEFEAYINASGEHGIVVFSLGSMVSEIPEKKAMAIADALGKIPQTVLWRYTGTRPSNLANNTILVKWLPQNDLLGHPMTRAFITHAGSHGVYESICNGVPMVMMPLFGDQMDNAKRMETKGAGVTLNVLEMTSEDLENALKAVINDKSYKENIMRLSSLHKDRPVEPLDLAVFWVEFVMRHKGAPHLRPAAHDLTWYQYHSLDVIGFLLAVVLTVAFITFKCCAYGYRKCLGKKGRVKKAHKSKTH
In words: Inhibition of recombinant UGT1A9 activity (4-MU glucuronidation). On the procedure:
(§1) A panel of recombinant human UGT supersomes (UGT1A1, UGT1A3, UGT1A4, UGT1A6, UGT1A7, UGT1A8, UGT1A9, UGT1A10, UGT2B4, UGT2B7, UGT2B15, and UGT2B17) expressed in baculovirus-infected insect cells were purchased from BD Gentest Corp. (Woburn, MA, USA).
(§2) 4-MU, a nonselective substrate of UGTs, was used as probe substrate for all UGTs except UGT1A4. Incubations with each individual enzyme were conducted using conditions previously described. There was a 5 min preincubation step at 37°C before the reaction was started by addition of UDPGA. The incubation mixtures were then centrifuged at 20,500 ×g for 15 min to obtain the supernatant. Aliquots (20 μL) were then analyzed by HPLC. The HPLC system (SHIMADZU, Kyoto, Japan) consisted of an SCL-10A system controller, two LC-10AT pumps, a SIL-10A auto injector, and a SPD-10AVP UV detector. Chromatographic separation was achieved using a Kromasil ODS column (4.6 × 150 mm I.D., 5 μm particle size) at a flow rate of 1 mL/min and UV detection at 316 nm. The mobile phase consisted of 10 mM KH2PO4, pH 2.7 (A) and acetonitrile (B). The following gradient was applied at a flow rate of 1 mL/min: 0–4 min 80% A and 20% B, 4.1–8 min 50% A and 50% B, 8.1–12 min, 30% A and 70% B. All experiments were performed in two independent experiments in duplicate.
(§3) A typical incubation mixture contained recombinant human UGTs, 5 mM MgCl2, 5 mM UDPGA, 50 μg/mg protein alamethicin, 50 mM Tris-HCl buffer (pH 7.4), and various probe substrates of UGTs in the absence or presence of different concentrations of inhibitors. […] The final concentration of DMSO in the incubation system was 1% (v/v). […]
(§4) Inhibition data from experiments were graphically represented by Dixon plots. K i values were calculated by nonlinear regression using the equations for competitive inhibition (1), noncompetitive inhibition (2), or mixed inhibition (3), [22] […] The type of inhibition was determined from the enzyme inhibition models. Goodness of fit to kinetic and inhibition models was assessed from the F statistic, r ^2 values, parameter standard error estimates, and 95% confidence intervals. […]

In another experiment the target is T2, UGT2B17 (Homo sapiens, UniProt O75795).
T2 sequence (O75795 24-530): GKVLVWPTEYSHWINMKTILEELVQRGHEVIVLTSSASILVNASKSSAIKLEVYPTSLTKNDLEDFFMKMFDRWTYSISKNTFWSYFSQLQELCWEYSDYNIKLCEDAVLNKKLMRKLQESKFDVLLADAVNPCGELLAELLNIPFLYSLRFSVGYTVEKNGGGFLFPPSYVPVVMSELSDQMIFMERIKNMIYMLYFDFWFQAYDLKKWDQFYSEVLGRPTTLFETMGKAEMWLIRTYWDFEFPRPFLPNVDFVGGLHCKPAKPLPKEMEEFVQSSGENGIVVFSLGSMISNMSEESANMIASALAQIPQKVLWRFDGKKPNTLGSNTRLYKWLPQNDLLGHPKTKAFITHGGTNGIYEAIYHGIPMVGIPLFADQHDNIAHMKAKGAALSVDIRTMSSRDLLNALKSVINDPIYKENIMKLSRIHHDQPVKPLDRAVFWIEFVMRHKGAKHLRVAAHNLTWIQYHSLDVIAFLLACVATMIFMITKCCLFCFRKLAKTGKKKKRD
In words: Inhibition of recombinant UGT2B17 activity (4-MU glucuronidation). Here is the method:
as §1, §2, §3, §4

Consider `COc1ccc(-c2oc3c(CC=C(C)C)c(O[C@@H]4O[C@H](CO)[C@@H](O)[C@H](O)[C@H]4O)cc(O)c3c(=O)c2O[C@@H]2O[C@@H](C)[C@H](O)[C@@H](O)[C@H]2O)cc1` [Icariin], for which the IC50 at UGT1A9 and at UGT2B17 was above 100 µM in each case.

`COc1ccc(-c2oc3c(CC=C(C)C)c(O[C@@H]4O[C@H](CO)[C@@H](O)[C@H](O)[C@H]4O)cc(O)c3c(=O)c2O)cc1` [Icariside I]: the IC50 at UGT1A9 and at UGT2B17 was above 100 µM in each case.

In the case of `COc1ccc(-c2oc3c(CC=C(C)C)c(O)cc(O)c3c(=O)c2O)cc1` [Icaritin], the IC50 at UGT1A9 is 1.5 ± 0.1 µM; on UGT2B17 it was above 100 µM.
